The target of data set [1] is PfIspE (Plasmodium falciparum, UniProt Q8I470). Briefly: PfIspE enzymatic assay (coupled to PK/LDH, NADH oxidation at 340 nm). In kind it is biochemical. As to the method: (§1) Firstly, we performed a temperature‐dependent decomposition study of compound 1 at 10 mM concentration in DMSO at room temperature (RT), +4 °C and −20 °C (SI, Section 2.3). […] Besides visual inspection of the colour changes of the test sample (see Table 2), the decomposition was monitored by HRMS and NMR spectroscopy. […] Furthermore, all three samples were tested for their inhibitory activity against PfIspE after the incubation period. […] In the IspE assay, the activity of the target enzyme is coupled to the oxidation of NADH (which can be followed spectrophotometrically at 340 nm) via a cascade of the auxiliary enzymes pyruvate kinase and lactate dehydrogenase (PK/LDH).[10] […] Three samples of compound 1 were tested in PK/LDH assay (Table 2).
(§2) Another approach to address this issue is to perform the IspE assay with one or several orthologues of PfIspE. […] The IspE assay setup was identical for both Pf and EcIspE orthologs except for the target enzyme used. One of the setup requirements was that the enzymatic activity of the auxiliary enzymes PK/LDH exceeded the activity of the target enzyme IspE not less than a factor of ten.[10] We investigated, if the inhibition of the auxiliary enzymes may substantially influence the IC50 values obtained from the coupled IspE assay.
(§3) 1.1 General Procedure for Enzymatic Assay
(§4) The cloning, expression and purification of Plasmodium falciparum[1] and Escherichia coli[2,3] and their subsequent assays followed the previously reported procedures .[1] In some specified cases, the tested compound was dissolved in methanol or acetonitrile for the assay .
(§5) Due to the nature of the study, some decomposition samples w ere only tested once and thus, for some formal standard error, […]
(§6) For the final purified compounds, replicates were measured and standard deviation was calculated at least from two replicates. […]
(§7) 2.) Decomposition Study Procedure
(§8) All reagents and solvents were of commercial quality and used without further purification.

The target of data set [2] is PK/LDH (pyruvate kinase and lactate dehydrogenase). As to the kind of experiment: PK/LDH auxiliary enzyme assay. The note with it: SFC-separated compound, dissolved in methanol shortly before the assay. The class given is biochemical. As to the method:
as §1, §3, §4, §5, §6, §7, §8
Low resolution mass analytics and purity controls were carried out using an Ultimate 3000-ISQ liquid-chromatography mass spectrometry (LCMS) system (Thermo Fisher Scientific, Dreieich, Germany) consisting of a Dionex UltiMate pump, an autosampler, DAD detector and an ESI quadrupole mass spectrometer. NMR spectra were recorded on a Bruker AV 500 or Ascend 700 (1H, 500 MHz or 700 MHz; 13C, 126 MHz or 175 MHz; 19F, 470 MHz) spectrometer. All spectra were measured in DMSO -d6, methanol-d4, acetone-d6 or acetonitrile-d3 to which reported

Data set [3] concerns Plasmodium falciparum drug-sensitive NF54. Briefly: Antimalarial assay, [3H]hypoxanthine incorporation. In kind it is cell-based. As to conditions: Plasmodium falciparum. As to the method: as §5
For the final purified compounds, replicates were measured and standard deviation was calculated at least from two replicates.
1.2 General Procedure for Antimalarial Assay
Plasmodium falciparum drug-sensitive NF54 (airport strain from The Netherlands, provided by F. Hoffmann-La Roche Ltd) was cultivated in a variation of the medium consisting of RPMI 1640 supplemented with 0.5% ALBUMAX® II, 25 mM Hepes, 25 mM NaHCO3 (pH 7.3), 0.36 mM hypoxanthine, and 100 μg/mL neomycin, as previously described.[4,5] Human erythrocytes served as host cells.
Cultures were maintained in an atmosphere of 3% O2, 4% CO2, and 93% N2 in humidified modular chambers at 37 °C. Compounds were dissolved in MeOH (10 mM), diluted in hypoxanthine-free culture medium and titrated in duplicates over a 64-fold range in 96 well plates. Infected erythrocytes (1.25% final hematocrit and 0.3% final parasitemia) were added into the wells. After 48 h incubation, 0.25 μCi of [3H]hypoxanthine was added per well and plates were incubated for an additional 24 h. Parasites were harvested onto glass-fiber filters and radioactivity was counted using a Betaplate liquid scintillation counter (Wallac, Zurich). Chloroquine […]
The results were recorded and expressed as a percentage of the untreated controls. Fifty percent inhibitory concentrations (IC50) were estimated by linear interpolation.[6] […]

Data set [4] is described as follows: Decomposition study of stock solutions (HRMS, NMR). The class given is physicochemical. The note with it: 10 mM DMSO stock at RT, after one day. As to the method: Firstly, we performed a temperature‐dependent decomposition study of compound 1 at 10 mM concentration in DMSO at room temperature (RT), +4 °C and −20 °C (SI, Section 2.3). After seven days, 64 % of the sample stored at RT had decomposed (SI, Table S1). Besides visual inspection of the colour changes of the test sample (see Table 2), the decomposition was monitored by HRMS and NMR spectroscopy. […] Furthermore, all three samples were tested for their inhibitory activity against PfIspE after the incubation period. […] This fact correlated with the degree of chemical transformation of compound 1 (Table S1). In the IspE assay, the activity of the target enzyme is coupled to the oxidation of NADH (which can be followed spectrophotometrically at 340 nm) via a cascade of the auxiliary enzymes pyruvate kinase and lactate dehydrogenase (PK/LDH).[10] Therefore, we next confirmed, whether the effects observed in the IspE assay are due to inhibition of the target enzyme or of the auxiliary enzymes. Three samples of compound 1 were tested in PK/LDH assay (Table 2).
Secondly, we analysed if spontaneous chemical transformation of compound 1 may depend on the solvent used for the preparation of its stock solutions. We incubated 10 mM stock preparations of compound 1 in DMSO, acetonitrile (ACN) and methanol (MeOH) at RT. Aliquots were taken during 16 days of incubation and tested against the enzyme PfIspE (Table 3). […] For further decomposition incubation of compound 1, only DMSO was used as solvent.
2.3 Temperature-Dependent Study
Compound 1 was dissolved in DMSO to afford 10 mM stock solution, in the scale of 3.65 mg in 1 mL. Three aliquots were prepared and one each was stored inside a light -protecting box at different temperatures: room temperature (RT), +4 °C and –20 °C. Samples were only taken to RT for the minimum time required for sampling. Samples were further d iluted with acetonitrile to 10 µM (1:1000) for HRMS analysis. For calibration, a fresh stock solution of the compound 1 was prepared shortly before the analysis. The concentration range used for the calibration was from 10 µM to 20 nM, including 10 samples with 1:1 dilutions starting from the highest concentration (Appendix I). In all of the calibration points and samples, diphenhydramine ( m/z: 256.16907 [M+H]+) was included as an internal standard at the concentration of 500 nM. The results were analysed using Thermo Xcalibur Quan Browser. Similarly, three NMR samples of compound 1 were prepared in DMSO-d6 and each stored at different temperatures; RT, +4 °C and –20 °C, (Figure S8).
Table S1. Summary of the decomposition of compound 1 at different temperatures with the corresponding enzymatic activities measured after three months.
The Percentage of Compound 1 Left After Degradation after 3 months of decomposition[b] Temperature Day 7 1 month 2 months PfIspE IC50 EcIspE IC50 PK/LDH IC50 […]
[a] [b] Errors given as formal standard error. n.d.: not determined, PK/LDH: pyruvate kinase and lactate dehydrogenase, Pf: Plasmodium falciparum, Ec: Escherichia coli.
Figure S7. The HRMS recorded for the samples submitted to the enzyme assay after 3 months of decomposition with the corresponding colour differences. […]
2.4 Solvent-Dependent Study
As in the Section 2.3, stock solutions of compound 1 were prepared in DMSO, ACN and MeOH and stored at RT for 16 days in a box protected from light . Samples were collected during this time and the enzymatic activity was analysed for them as in main text, Table […]
compound 1 for ACN or MeOH was detectible (Figures S11–12). Similarly, the old samples of compound 1 used for enzyme and cell assays were analysed with HRMS (Figure S13). Additionally, NMR sample in MeOH was prepared and measured over time while stored at RT. As a follow-up experiment, the stability of compound 1 was determined for its 10 mM stock solution in Tris-HCl (pH 7.6) with and without 5% DMSO and Cyrene™ with HRMS (Figure S16–18). […]

For data set [5], the target named is T1, EcIspE (Escherichia coli, UniProt P62615).
T1 construct: made in house
Briefly: EcIspE enzymatic assay (coupled to PK/LDH). The class given is biochemical. The note with it: fractions of second purification.
Text: as §2, §3, §4, §5, §6, §7, §8
Low resolution mass analytics and purity controls were carried out using an Ultimate 3000-ISQ liquid-chromatography mass spectrometry (LCMS) system (Thermo Fisher […]

Where [6] appears, read: fractions of second purification (DMSO, RT, five days), dissolved in ACN.
[7] abbreviates: fractions of second purification (DMSO, RT, five days), dissolved in MeOH.

Like-named read-outs stand apart in the source and are kept apart here. Bounds are passed on as bounds.

Sequence of PfIspE (Q8I470 entry or part of it): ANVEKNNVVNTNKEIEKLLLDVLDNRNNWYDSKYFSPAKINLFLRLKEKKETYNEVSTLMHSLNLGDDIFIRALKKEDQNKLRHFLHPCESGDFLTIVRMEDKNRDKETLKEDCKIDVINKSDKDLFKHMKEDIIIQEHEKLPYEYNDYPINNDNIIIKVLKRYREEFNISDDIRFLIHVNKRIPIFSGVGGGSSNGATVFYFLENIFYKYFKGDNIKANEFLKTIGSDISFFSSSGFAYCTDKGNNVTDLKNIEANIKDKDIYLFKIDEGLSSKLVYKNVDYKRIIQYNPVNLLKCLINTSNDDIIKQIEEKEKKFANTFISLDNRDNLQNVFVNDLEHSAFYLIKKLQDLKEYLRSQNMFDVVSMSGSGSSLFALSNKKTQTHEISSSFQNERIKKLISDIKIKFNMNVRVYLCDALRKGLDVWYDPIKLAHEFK
T1 sequence (P62615 whole entry): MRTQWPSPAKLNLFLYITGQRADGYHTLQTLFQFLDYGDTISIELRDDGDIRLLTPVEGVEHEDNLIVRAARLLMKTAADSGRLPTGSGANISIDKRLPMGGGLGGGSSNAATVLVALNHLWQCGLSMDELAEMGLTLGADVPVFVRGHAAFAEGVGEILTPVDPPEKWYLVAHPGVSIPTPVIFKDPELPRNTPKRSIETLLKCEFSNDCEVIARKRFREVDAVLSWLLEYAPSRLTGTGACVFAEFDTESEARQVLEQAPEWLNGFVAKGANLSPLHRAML

The term IC50 denotes the concentration that inhibits the measured activity by half. For the compound `CCn1c(C)cc(-c2csc(N(c3ccccc3C(F)(F)F)N(C3=NC(=C4C=C(C)[N+](CC)=C4C)CS3)c3ccccc3C(F)(F)F)n2)c1C` [DP2], the concentration for half-maximal inhibition (IC50) in data set [1] (SFC-separated compound, dissolved in methanol shortly before the assay) stood at 59 ± 4 µM; in data set [2], 37 ± 4 µM; in data set [3] (NF54, 72 h, SFC-separated compound, dissolved in methanol shortly before the assay, 72 hours, highest concentration tested 20 μM, read-out: PfNF54 IC50) it was 2.1 ± 0.2 µM.
On to `C[C@H]1[C@H](OC(=O)CCC(=O)O)O[C@@H]2O[C@@]3(C)CC[C@H]4[C@H](C)CC[C@@H]1[C@@]24OO3` [artesunate, reference compound], for which the IC50 in data set [3] (NF54, controls of the antimalarial assay, read-out: PfNF54 IC50) amounted to 4 ± 1.7 ng/mL.
Regarding `CCn1c(C)cc(-c2csc(Nc3ccccc3OC)n2)c1C` [Compound 2, 4-(1-Ethyl-2,5-dimethyl-1H-pyrrol-3-yl)-N-(2-methoxyphenyl)thiazol-2-amine], the half-inhibitory concentration (IC50) in data set [1] (first screening, from a single measurement, not reproducible later) is 191 µM; in data set [1] (setting [6]), greater than 1530 µM; in data set [1] (setting [7]), greater than 1530 µM; in data set [1] (fresh batch, freshly prepared stock solution), greater than 500 µM; in data set [5] (dissolved in ACN), greater than 1530 µM; in data set [5] (dissolved in MeOH), greater than 1530 µM. The “decomposition in DMSO at RT: dimerisation (HRMS, in words)” value (“decomposition in DMSO at RT” below) in data set [4] is reported as “dimerising mainly into the predicted N−N dimers”.
As to `C=CCn1c(C)cc(-c2csc(Nc3ccccc3C(C)C)n2)c1C` [Compound 3, 4-(1-Allyl-2,5-dimethyl-1H-pyrrol-3-yl)-N-(2-isopropylphenyl)thiazol-2-amine], the IC50 in data set [1] (setting [6]), in data set [1] (setting [7]), in data set [5] (dissolved in ACN) and in data set [5] (dissolved in MeOH) was greater than 1420 µM in each case. Further, the “decomposition in DMSO at RT” value in data set [4] is recorded as “dimerising mainly into the predicted N−N dimers”.
With `Cc1cc(-c2csc(Nc3ccccc3C(F)(F)F)n2)c(C)n1CC1CCCO1` (centres unmarked) [Compound 4, 4-(2,5-Dimethyl-1-((tetrahydrofuran-2-yl)methyl)-1H-pyrrol-3-yl)-N-(2-(trifluoromethyl)phenyl)thiazol-2-amine], the IC50 was greater than 1190 µM in data set [1] (fractions of first prep. HPLC purification (DMSO, RT, 2.5 weeks), dissolved in DMSO as 1 mg/mL); greater than 1190 µM in data set [1] (setting [6]); 112 µM in data set [1] (setting [7]); greater than 1190 µM in data set [5] (dissolved in ACN); 292 µM in data set [5] (dissolved in MeOH). Besides, the “decomposition in DMSO at RT” value in data set [4] is “no dimerisation”.
As for `CCN(CC)CCCC(C)Nc1ccnc2cc(Cl)ccc12` (centres unmarked) [Chloroquine, reference compound], the half-inhibitory concentration (IC50) in data set [3] (NF54, read-out: PfNF54 IC50) worked out at 3.1 ± 0.8 ng/mL.

The record behind these values is article PMC8360061, “Search for the Active Ingredients from a 2‐Aminothiazole DMSO Stock Solution with Antimalarial Activity” (Chemmedchem, 2021).
